# Results published in patent publication US20200222347A1, “ANTIMICROBIALS AND METHODS OF USE THEREOF” (priority 2013, published 2020).
# “Also recorded” adds a separate entry of the source.
# What was measured:
# [1] = tested on: P. aeruginosa; experiment: Kirby-Bauer disc diffusion antimicrobial susceptibility; format: cell-based, Pseudomonas aeruginosa; conditions: 100 mM, carrier water; 18-24 hours for aerobes
# [2] = tested on: normal human skin bacterial resident flora; experiment: Human skin disinfection study, Loma Linda, Phase 1; format: in vivo
# Procedure: A randomized double blinded study was performed at Loma Linda Medical School. It involved 4 phases over two years' time. The methods were as follows:
# […] […] The controls were Chloroprep (2% Chlorhexidine in 70% isopropyl alcohol) and Betadine (9.0% to 12.0% available iodine in water). Cultures were taken before application and 20 minutes after application. The initial harvest was by a surface swab. Application was by soaked sponge, without force or scrubbing. The second harvest was performed with the back edge of a sterile knife blade scraping with pressure in attempt to maximize the harvest from the deeper sebaceous glands and hair follicles. The specimens were placed in culture media. Bacteriology was performed at WuXiAppTec in Marrietta, Ga.
# [3] = tested on: skin stripped wounds infected with Pseudomonas aeruginosa (ATCC 27853); experiment: Histology of stripped, infected and treated skin wound, Example 6; conditions: 48 hours
# [4] = 1% PCA in water, 20 minutes after application
smiles,measurement,setting,value
"O=C(O)c1ccc(O)c(O)c1 [PCA, Protocatechuic acid]",effectiveness against P. aeruginosa,[1],effective; also recorded: some effectiveness
same,anaerobic cultures with no growth,[2]; [4],6 of 22
same,subjects with no growth on aerobic culture,[2]; [4],7 of 22
same,anaerobic cultures with reduced colony growth,"[2]; 1% PCA in water, of 22 cultures",15
same,aerobic cultures with reduced growth,"[2]; 1% PCA in water, of 22 subjects",10 cultures
same,"effectiveness as skin disinfectant, Phase 1",[2]; 20 minutes after application,partially effective
same,collagen between the epidermis and dermis,[3]; 25 mM,collagen proliferation between the epidermis and dermis; also recorded: collagen layer formation
same,dermal layer,[3]; 25 mM,thickened
same,hair follicles,[3]; 25 mM,prominent with multiple cellular lining
same,inflammation,[3]; 25 mM,abundant inflammation
same,surface cellularity,[3]; 25 mM,abundant and multiple cell layers
same,vascularity,[3]; 25 mM,moderate vascularity
same,dermal layer,[3]; 50 mM,thicker
same,hair follicles,[3]; 50 mM,double layer of cells
same,inflammation,[3]; 50 mM,increased in the dermis and below the muscle layer
same,surface cellularity,[3]; 50 mM,covered with multiple layers of cells
same,vascularity,[3]; 50 mM,increased vascularity
same,tissue repair / healing response by histology,"[3]; PCA 25 and 50 mM, C3G 100 and 200 mM",stimulated tissue repair
